From paper PMC8149447, “Caerulomycin and collismycin antibiotics share a trans-acting flavoprotein-dependent assembly line for 2,2’-bipyridine formation” (Nature Communications, 2021)
One block for each molecule: values may come before it.

Columns and labels:
[1] = molecular target: T1, ColA3 (Streptomyces filamentosus, UniProt A0ABY4UPY4); experiment: HPLC / MS of product […] (as IAA derivative […]) or […]; assay type: biochemical; conditions: reconstituted with CaeA1, CaeA2, CaeB1; picolinic acid, malonyl-CoA, L-cysteine, ATP, Mg, pH 7.5, 30 C
T1 construct: gene K7395_06055; full length C-A-PCP module, N-terminal 6xHis (or MBP-6xHis) tag

[2] = molecular target: T2, CaeB1 (Actinoalloteichus caeruleus, UniProt M1F383, S168A); experiment: absorbance spectrum; activity rescue by added FAD; assay type: biochemical; conditions: noncovalent; excess FAD added in the product assay
T2 construct: full length, N-terminal 6xHis (or MBP-6xHis) tag, expressed in E. coli; noncovalent FAD

[3] = molecular target: T3, CaeB1 (Actinoalloteichus caeruleus, UniProt M1F383, E372L); experiment: absorbance spectrum of purified protein; assay type: binding; conditions: noncovalent; co-purified, oxidized form
T3 construct: full length, N-terminal 6xHis (or MBP-6xHis) tag, expressed in E. coli; noncovalent FAD

[4] = molecular target: T4, CaeB1 (Actinoalloteichus caeruleus, UniProt M1F383); experiment: absorbance spectrum; heat denaturation and HPLC-HR-MS; assay type: binding; conditions: noncovalent; co-purified, oxidized form
T4 construct: full length, N-terminal 6xHis (or MBP-6xHis) tag, expressed in E. coli; noncovalent FAD
T4 sequence (M1F383 1-386): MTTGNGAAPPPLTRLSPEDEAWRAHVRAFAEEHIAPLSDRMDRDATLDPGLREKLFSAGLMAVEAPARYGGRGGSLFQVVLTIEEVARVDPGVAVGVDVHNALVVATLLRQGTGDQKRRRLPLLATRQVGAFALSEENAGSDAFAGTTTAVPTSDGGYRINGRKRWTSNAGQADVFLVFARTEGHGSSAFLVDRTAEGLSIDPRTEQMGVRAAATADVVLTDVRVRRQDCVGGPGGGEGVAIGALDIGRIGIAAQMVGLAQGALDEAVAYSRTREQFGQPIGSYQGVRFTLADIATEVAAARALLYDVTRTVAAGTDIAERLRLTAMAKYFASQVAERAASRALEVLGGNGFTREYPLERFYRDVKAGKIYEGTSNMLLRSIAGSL

[5] = molecular target: T5, ColB1 (Streptomyces filamentosus, UniProt A0ABY4UQ20); experiment: heat denaturation and HPLC-DAD / ESI-HR-MS; assay type: binding; conditions: noncovalent; co-purified
T5 construct: gene K7395_06050; full length, N-terminal 6xHis (or MBP-6xHis) tag; noncovalent FAD
T5 sequence (A0ABY4UQ20 1-394): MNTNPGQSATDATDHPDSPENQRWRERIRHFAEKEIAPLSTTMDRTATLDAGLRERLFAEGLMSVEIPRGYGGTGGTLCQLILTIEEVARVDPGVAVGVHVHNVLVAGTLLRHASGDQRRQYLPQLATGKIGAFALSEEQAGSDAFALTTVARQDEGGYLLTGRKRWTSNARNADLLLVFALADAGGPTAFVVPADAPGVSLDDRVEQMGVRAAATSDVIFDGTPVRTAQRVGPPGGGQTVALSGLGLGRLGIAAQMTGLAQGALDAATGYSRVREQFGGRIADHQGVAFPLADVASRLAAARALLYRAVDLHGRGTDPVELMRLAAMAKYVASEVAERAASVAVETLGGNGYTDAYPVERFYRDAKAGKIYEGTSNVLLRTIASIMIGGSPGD

[6] = molecular target: N-terminally thioredoxin (Trx)-tagged Ct domain of the CaeA2 NRPS module (A. cyanogriseus (CAE-producing strain)); experiment: ITC; MicroCal-ITC200, 25°C; 60 μM CaeA2 construct in the cell, 400 μM flavoprotein in the syringe; 50 mM Tris-HCl pH 7.5, 100 mM NaCl, 0.1 mM TCEP, 5% glycerol; single binding site model
[7] = molecular target: Ct-PCP didomain of the CaeA2 NRPS module (A. cyanogriseus (CAE-producing strain)); experiment: as above
[8] = molecular target: T6, MBP-fused CaeB1 variant (A. cyanogriseus (CAE-producing strain), UniProt M1F383 1-386); experiment: as above; conditions: both partners purified
T6 construct: CaeB1, flavin (FAD)-dependent protein of the caerulomycin (cae) biosynthetic gene cluster; also called trans-acting flavoprotein; not shown: MBP, N-terminal, kept
T6 sequence (looked up): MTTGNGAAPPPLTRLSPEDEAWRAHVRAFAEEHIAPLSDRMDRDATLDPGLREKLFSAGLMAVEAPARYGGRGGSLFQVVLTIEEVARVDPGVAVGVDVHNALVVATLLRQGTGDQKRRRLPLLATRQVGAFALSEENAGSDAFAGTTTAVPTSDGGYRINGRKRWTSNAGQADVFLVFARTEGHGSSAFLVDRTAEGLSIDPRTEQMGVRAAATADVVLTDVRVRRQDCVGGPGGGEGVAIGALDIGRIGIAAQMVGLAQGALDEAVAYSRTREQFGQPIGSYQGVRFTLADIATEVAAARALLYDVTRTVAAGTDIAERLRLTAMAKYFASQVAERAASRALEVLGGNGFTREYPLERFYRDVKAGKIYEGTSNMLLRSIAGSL

T3 sequence (M1F383 entry or part of it E372L): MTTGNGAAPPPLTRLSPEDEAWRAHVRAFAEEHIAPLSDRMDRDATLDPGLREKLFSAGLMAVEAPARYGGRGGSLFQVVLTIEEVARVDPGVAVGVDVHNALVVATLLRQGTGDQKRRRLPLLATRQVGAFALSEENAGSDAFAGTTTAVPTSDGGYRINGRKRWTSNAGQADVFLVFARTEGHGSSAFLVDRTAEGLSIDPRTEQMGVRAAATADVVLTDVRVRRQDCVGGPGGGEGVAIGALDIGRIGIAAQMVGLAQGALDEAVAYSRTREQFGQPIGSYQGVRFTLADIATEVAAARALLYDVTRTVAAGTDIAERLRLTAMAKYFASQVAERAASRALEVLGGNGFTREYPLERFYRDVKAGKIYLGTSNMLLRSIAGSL
T2 sequence (M1F383 entry or part of it S168A): as the sequence (M1F383 entry or part of it E372L) above, with S168A, L372E counted along it
T1 sequence (A0ABY4UPY4 entry or part of it): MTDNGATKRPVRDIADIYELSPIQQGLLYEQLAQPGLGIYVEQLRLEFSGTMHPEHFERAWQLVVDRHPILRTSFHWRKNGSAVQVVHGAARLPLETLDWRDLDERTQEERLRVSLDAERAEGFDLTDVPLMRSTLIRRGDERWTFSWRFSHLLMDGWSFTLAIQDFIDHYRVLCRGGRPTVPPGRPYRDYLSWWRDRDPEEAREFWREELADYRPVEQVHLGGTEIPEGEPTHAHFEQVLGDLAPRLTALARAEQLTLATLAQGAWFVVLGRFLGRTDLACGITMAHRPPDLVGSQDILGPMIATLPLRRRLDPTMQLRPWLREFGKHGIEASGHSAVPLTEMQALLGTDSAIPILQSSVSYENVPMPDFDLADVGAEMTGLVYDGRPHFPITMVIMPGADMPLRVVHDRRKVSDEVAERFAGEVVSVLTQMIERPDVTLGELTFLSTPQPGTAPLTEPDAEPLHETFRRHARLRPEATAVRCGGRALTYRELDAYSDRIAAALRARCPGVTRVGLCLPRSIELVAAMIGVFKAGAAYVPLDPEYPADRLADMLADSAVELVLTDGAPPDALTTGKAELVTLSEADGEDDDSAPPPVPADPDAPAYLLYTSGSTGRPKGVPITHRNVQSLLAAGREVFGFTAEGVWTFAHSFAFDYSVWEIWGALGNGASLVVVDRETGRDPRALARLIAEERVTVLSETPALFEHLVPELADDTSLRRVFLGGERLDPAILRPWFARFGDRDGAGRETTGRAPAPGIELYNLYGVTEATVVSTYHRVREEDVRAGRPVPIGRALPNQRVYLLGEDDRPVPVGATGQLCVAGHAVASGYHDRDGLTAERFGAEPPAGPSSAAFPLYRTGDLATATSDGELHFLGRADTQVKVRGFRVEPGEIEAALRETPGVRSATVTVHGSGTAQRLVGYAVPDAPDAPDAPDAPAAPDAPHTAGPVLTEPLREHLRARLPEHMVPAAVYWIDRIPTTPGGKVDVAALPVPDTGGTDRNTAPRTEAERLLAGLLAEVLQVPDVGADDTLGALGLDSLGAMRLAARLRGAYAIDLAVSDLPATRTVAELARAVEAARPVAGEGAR

Molecule: CC(C)C[C@H](N)C(=O)O [L-leucine]
HPLC / MS of product 15 (as IAA derivative 17) or 16 [1]: incubating CaeA1, CaeA2, and CaeB1 with ColA3 in the presence of the necessary substrates

Molecule: Cc1cc2nc3c(=O)[nH]c(=O)nc-3n(C[C@H](O)[C@H](O)[C@H](O)COP(=O)(O)OP(=O)(O)OC[C@H]3O[C@@H](n4cnc5c(N)ncnc54)[C@H](O)[C@@H]3O)c2cc1C [FAD]
FAD-binding ability [2]: the latter variant was nearly colorless, indicating the loss of FAD-binding ability
absorbance spectrum of purified protein [3]: shares with the wild-type protein a light yellow color and an absorbance spectrum characteristic of FAD
absorbance spectrum; heat denaturation and HPLC-HR-MS [4]: Purified CaeB1, which appeared light yellow, was determined to bind oxidized flavin adenine dinucleotide (FAD)
heat denaturation and HPLC-DAD / ESI-HR-MS [5]: ColB1, the homolog of trans-acting flavoprotein CaeB1 that also noncovalently binds a FAD cofactor

Kd [6]: 1180 nM
Molecule: ColB1 (enzyme)

Kd [7]: 420 nM
B1: MBP-fused CaeB1 variant (enzyme)
chain: MTTGNGAAPPPLTRLSPEDEAWRAHVRAFAEEHIAPLSDRMDRDATLDPGLREKLFSAGLMAVEAPARYGGRGGSLFQVVLTIEEVARVDPGVAVGVDVHNALVVATLLRQGTGDQKRRRLPLLATRQVGAFALSEENAGSDAFAGTTTAVPTSDGGYRINGRKRWTSNAGQADVFLVFARTEGHGSSAFLVDRTAEGLSIDPRTEQMGVRAAATADVVLTDVRVRRQDCVGGPGGGEGVAIGALDIGRIGIAAQMVGLAQGALDEAVAYSRTREQFGQPIGSYQGVRFTLADIATEVAAARALLYDVTRTVAAGTDIAERLRLTAMAKYFASQVAERAASRALEVLGGNGFTREYPLERFYRDVKAGKIYEGTSNMLLRSIAGSL

Kd [8]: 530 ± 120 nM
B2: N-terminally thioredoxin (Trx)-tagged Ct domain of the CaeA2 NRPS module (domain or fragment)
chain: EQEADGTVAPFTPHQAALVAEGAVDWITVEAAASDLDPALAERALREIADRHPALRLRSGTRDDGTPGQYDGGSPGDGLFSEIDLSGLAEDARDDALAEIVAEMSEEVGLAEREPVKLAVVRAGADDVRLLWLAAGAALDDTSWRLLLAEFGRAYQQLAERGSIDWTGMPESVLGWVATQEGAAPPPSVETVAFTGELRTVLDADVTTAFAEATFGAYHLELGEAVAAALTVAARAWPGREPAVTVERSLRTATTDEALGRFTEVTTLDVAAEAVADTLTGVKRAYRDVVRPAPAHPRVHLRDVRSGDWRPTAGPLSPAGLSSPVSTATTPEVLAEVGAAVVGGELVLRWRHTTDAAEATALAEAFTEAVETITEHCRQAGSGSYEPSDFPLAGVDPDELSALLSTLEK
modifications: Trx/6xHis tag omitted; Ct primers not in the excerpt; start placed just after the Carrier feature (2001-2075), in line with the 58 kDa Trx fusion and the 44 kDa difference between CaeA2 and …
